The source of these data is PMC11528067, “Structural Bases of Dihydroxy Acid Dehydratase Inhibition and Biodesign for Self-Resistance” (Biodesign Research, 2024).

Values joined by “and” are separate entries in the source; they are usually repeats but may differ in a detail not shown here. Identical values can stand only once.

A word on the Km: it is the concentration of substrate that gives half-maximal velocity. The kcat is the number of substrate molecules converted per active site and unit of time at saturation. What is called IC50 is the concentration at which inhibition is half-maximal. Higher therefore signals lower potency. Usually Ki stands for the dissociation constant of the complex between target and ligand, obtained from inhibition or displacement.

Experiment [1] addresses T1, AthDHAD (Arabidopsis thaliana, UniProt Q9LIR4).
T1 construct: made in house; host or cells: E. coli BL21(DE3)
T1 sequence (Q9LIR4 35-608): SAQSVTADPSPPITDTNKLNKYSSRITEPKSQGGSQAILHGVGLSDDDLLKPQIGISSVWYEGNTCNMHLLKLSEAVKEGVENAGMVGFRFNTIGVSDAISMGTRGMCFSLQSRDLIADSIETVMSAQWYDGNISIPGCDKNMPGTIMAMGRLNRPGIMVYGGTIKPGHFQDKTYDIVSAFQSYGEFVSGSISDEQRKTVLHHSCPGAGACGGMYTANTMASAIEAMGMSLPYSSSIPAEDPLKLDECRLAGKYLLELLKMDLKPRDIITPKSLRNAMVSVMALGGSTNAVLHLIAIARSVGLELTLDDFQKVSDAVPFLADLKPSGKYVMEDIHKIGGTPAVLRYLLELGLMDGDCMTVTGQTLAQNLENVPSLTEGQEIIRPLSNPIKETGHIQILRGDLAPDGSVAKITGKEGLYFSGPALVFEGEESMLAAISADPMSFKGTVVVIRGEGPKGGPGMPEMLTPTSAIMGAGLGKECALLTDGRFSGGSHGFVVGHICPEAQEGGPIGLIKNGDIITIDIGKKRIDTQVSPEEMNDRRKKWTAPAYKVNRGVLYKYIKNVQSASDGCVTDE
Put plainly: In vitro activity and AA inhibition assay of AthDHAD. It is filed as biochemical, A. thaliana. The note with it: AthDHAD wild type. As to the method:
(§1) In vitro activity assays were carried out in 25 μl of reaction mixture containing A10 buffer without NaCl. The Michaelis–Menten constants (kcat, KM) for each enzyme were calculated by fitting the following formula to the observed reaction rate. V=VmaxS/KM+S Vmax=kcatE0
(§2) The inhibition percentages of AA on AthDHADs were determined using in vitro biochemical assays and calculated with the following equation:
(§3) Inhibition percentage = 100 − 100 × (initial reaction rate with AA/initial reaction rate without AA)
(§4) The inhibition assays were conducted with either 10 mM (±)-sodium-α,β-dihydroxyisovalerate (DHI) or 10 mM (±)-sodium-α,β-dihydroxymethylvalerate hydrate (DHMV), along with 0.5 μM of purified AthDHAD enzyme or its mutants. The reaction was initiated by adding the corresponding enzymes, followed by a 20-min incubation at 28°C. To halt the reactions, an equal volume of acetonitrile was introduced. Subsequently, approximately 0.04 volumes of 100 mM phenylhydrazine were added to facilitate the derivatization of the product, either 2-keto-isovalerate or 2-keto-3-methylvalerate, at room temperature for 30 min. For HPLC analysis, 10 μl of the reaction mixture was utilized.

In the next experiment the target is T2, AthDHAD-V497F (Arabidopsis thaliana, UniProt Q9LIR4, V531F).
T2 construct: made in house; host or cells: E. coli BL21(DE3)
Put plainly: In vitro activity and AA inhibition assay of AthDHAD mutant V497F. It is filed as biochemical, A. thaliana. The note with it: DHI as substrate (10 mM), 0.5 μM enzyme. As to the method: as §1, §2, §3, §4

Experiment [2] deals with Transgenic A. thaliana expressing AstD. Details: method as in PMID 29995859. The following applies: cited from earlier work.
The target in experiment [3] is T1, AthDHAD. The following applies: cited from earlier work.
A further experiment deals with T3, AthDHAD-V178L (Arabidopsis thaliana, UniProt Q9LIR4, V212L).
T3 construct: made in house; host or cells: E. coli BL21(DE3)
In words: In vitro activity and AA inhibition assay of AthDHAD mutant V178L. It is filed as biochemical, A. thaliana. The following applies: DHI as substrate (10 mM), 0.5 μM enzyme. On the procedure: as §1, §2, §3, §4

A further experiment concerns the target T4, AthDHAD-I177F (Arabidopsis thaliana, UniProt Q9LIR4, I211F).
T4 construct: made in house; host or cells: E. coli BL21(DE3)
In words: In vitro activity and AA inhibition assay of AthDHAD mutant I177F. It is filed as biochemical, A. thaliana. As to the method:
as §1, §2, §3, §4

Another experiment has as its target T5, AthDHAD-V497L (Arabidopsis thaliana, UniProt Q9LIR4, V531L).
T5 construct: made in house; host or cells: E. coli BL21(DE3)
In words: In vitro activity and AA inhibition assay of AthDHAD mutant V497L. It counts as biochemical, A. thaliana. As to the method: as §1, §2, §3, §4

A further experiment deals with T6, AthDHAD-V496F (Arabidopsis thaliana, UniProt Q9LIR4, V530F).
T6 construct: made in house; host or cells: E. coli BL21(DE3)
Put plainly: In vitro activity and AA inhibition assay of AthDHAD mutant V496F. It is filed as biochemical, A. thaliana. As to the method: as §1, §2, §3, §4

The next experiment addresses T7, AthDHAD-V496I (Arabidopsis thaliana, UniProt Q9LIR4, V530I).
T7 construct: made in house; host or cells: E. coli BL21(DE3)
In words: In vitro activity and AA inhibition assay of AthDHAD mutant V496I. It counts as biochemical, A. thaliana. As to the method:
as §1, §2, §3, §4

The next experiment has as its system AteDHAD. Also on record: method as in PMID 29995859. The following applies: housekeeping DHAD from A. terreus (XP_001208445.1); cited from earlier work.
In a further experiment the target is T8, AthDHAD-V178I (Arabidopsis thaliana, UniProt Q9LIR4, V212I).
T8 construct: made in house; host or cells: E. coli BL21(DE3)
In words: In vitro activity and AA inhibition assay of AthDHAD mutant V178I. It is filed as biochemical, A. thaliana. The following applies: DHI as substrate (10 mM), 0.5 μM enzyme. On the procedure: as §1, §2, §3, §4

The target of a further experiment is T9, AthDHAD-I177L-V496L (Arabidopsis thaliana, UniProt Q9LIR4, I211L/V530L).
T9 construct: made in house; host or cells: E. coli BL21(DE3)
Put plainly: In vitro activity and AA inhibition assay of AthDHAD double mutant I177L/V496L. It is filed as biochemical, A. thaliana. As to the method: as §1, §2, §3, §4

A further experiment addresses T10, AthDHAD-V497I (Arabidopsis thaliana, UniProt Q9LIR4, V531I).
T10 construct: made in house; host or cells: E. coli BL21(DE3)
Put plainly: In vitro activity and AA inhibition assay of AthDHAD mutant V497I. It counts as biochemical, A. thaliana. The following applies: DHI as substrate (10 mM), 0.5 μM enzyme. As to the method: as §1, §2, §3, §4

The test system of another experiment is AstD. The note with it: cited from earlier work.
A further experiment addresses T11, AthDHAD-V178W (Arabidopsis thaliana, UniProt Q9LIR4, V212W).
T11 construct: made in house; host or cells: E. coli BL21(DE3)
In words: In vitro activity and AA inhibition assay of AthDHAD mutant V178W. The following applies: DHI as substrate (10 mM), 0.5 μM enzyme. It is filed as biochemical, A. thaliana. As to the method: as §1, §2, §3, §4

In the next experiment the target is T12, AthDHAD-V178F (Arabidopsis thaliana, UniProt Q9LIR4, V212F).
T12 construct: made in house; host or cells: E. coli BL21(DE3)
In words: In vitro activity and AA inhibition assay of AthDHAD mutant V178F. It counts as biochemical, A. thaliana. The following applies: DHI as substrate (10 mM), 0.5 μM enzyme. On the procedure:
as §1, §2, §3, §4

For the next experiment, the system named is A. thaliana. Details: method as in PMID 29995859. The following applies: A. thaliana as a model plant organism; cited from earlier work.
In another experiment the target is T13, AthDHAD-I177L-V497L (Arabidopsis thaliana, UniProt Q9LIR4, I211L/V531L).
T13 construct: made in house; host or cells: E. coli BL21(DE3)
In words: In vitro activity and AA inhibition assay of AthDHAD double mutant I177L/V497L. It is filed as biochemical, A. thaliana. On the procedure: as §1, §2, §3, §4

A further experiment has as its target T14, AthDHAD-V496L (Arabidopsis thaliana, UniProt Q9LIR4, V530L).
T14 construct: made in house; host or cells: E. coli BL21(DE3)
Put plainly: In vitro activity and AA inhibition assay of AthDHAD mutant V496L. It is filed as biochemical, A. thaliana. The following applies: DHI as substrate (10 mM), 0.5 μM enzyme. As to the method: as §1, §2, §3, §4

Experiment [4] relates to A. thaliana transgenic lines with mutant AthDHAD (V178L and V496L). Put plainly: Growth inhibition of AA on transgenic A. thaliana with mutant AthDHAD (V178L and V496L). It counts as in vivo. The note with it: 100 μM AA on Murashige and Skoog medium, day 7; V178L and V496L lines compared to line expressing AstD. From the text:
The gene block containing DHAD variants, and the 2XFLAG-tag was synthesized and then cloned into modified pEG302 vector using Gateway LR Clonase II Enzyme Mix (Thermo Fisher Scientific). Ubiquitin-10 promoter was used to drive the expression of DHAD variants. The construct was electrotransformed into Agrobacterium tumefaciens strain Agl0 and then transformed into A. thaliana rdr6-15 in which the transgene silencing pathway is blocked. Positive transgenic plants were selected using the hygromycin B and were tested for survival in the presence of AA.
A. thaliana seeds were sterilized with 70% ethanol and sown on Murashige and Skoog medium supplemented with either ethanol control or 100 μM AA. Photos were taken, and fresh weights were measured at day 7.

Another experiment addresses T15, AthDHAD-V178L-V497L (Arabidopsis thaliana, UniProt Q9LIR4, V212L/V531L).
T15 construct: made in house; host or cells: E. coli BL21(DE3)
Put plainly: In vitro activity and AA inhibition assay of AthDHAD double mutant V178L/V497L. It is filed as biochemical, A. thaliana. As to the method:
as §1, §2, §3, §4

Another experiment has as its target T16, AthDHAD-I177L (Arabidopsis thaliana, UniProt Q9LIR4, I211L).
T16 construct: made in house; host or cells: E. coli BL21(DE3)
In words: In vitro activity and AA inhibition assay of AthDHAD mutant I177L. It counts as biochemical, A. thaliana. On the procedure:
as §1, §2, §3, §4

T3 sequence (Q9LIR4 35-608 V212L): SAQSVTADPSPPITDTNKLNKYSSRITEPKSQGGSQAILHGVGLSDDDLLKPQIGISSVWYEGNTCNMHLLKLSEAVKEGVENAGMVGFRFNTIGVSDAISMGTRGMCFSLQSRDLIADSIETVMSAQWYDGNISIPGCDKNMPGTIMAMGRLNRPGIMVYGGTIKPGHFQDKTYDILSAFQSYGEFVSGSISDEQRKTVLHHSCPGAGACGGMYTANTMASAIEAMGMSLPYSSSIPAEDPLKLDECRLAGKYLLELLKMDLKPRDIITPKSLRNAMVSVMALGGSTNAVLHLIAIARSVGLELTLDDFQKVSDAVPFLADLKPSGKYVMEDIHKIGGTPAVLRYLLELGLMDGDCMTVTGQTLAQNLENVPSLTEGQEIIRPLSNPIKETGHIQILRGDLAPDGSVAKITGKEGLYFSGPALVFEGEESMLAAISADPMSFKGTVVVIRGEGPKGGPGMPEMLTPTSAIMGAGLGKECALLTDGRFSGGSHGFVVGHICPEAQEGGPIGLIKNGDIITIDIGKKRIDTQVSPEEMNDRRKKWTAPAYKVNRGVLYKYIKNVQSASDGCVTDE
T8 sequence (Q9LIR4 35-608 V212I): as the sequence (Q9LIR4 35-608 V212L) above, with L178I counted along it
T10 sequence (Q9LIR4 35-608 V531I): as the sequence (Q9LIR4 35-608 V212L) above, with L178V, V497I counted along it
T2 sequence (Q9LIR4 35-608 V531F): as the sequence (Q9LIR4 35-608 V212L) above, with L178V, V497F counted along it
T14 sequence (Q9LIR4 35-608 V530L): as the sequence (Q9LIR4 35-608 V212L) above, with L178V, V496L counted along it
T11 sequence (Q9LIR4 35-608 V212W): as the sequence (Q9LIR4 35-608 V212L) above, with L178W counted along it
T12 sequence (Q9LIR4 35-608 V212F): as the sequence (Q9LIR4 35-608 V212L) above, with L178F counted along it
T6 sequence (Q9LIR4 35-608 V530F): as the sequence (Q9LIR4 35-608 V212L) above, with L178V, V496F counted along it
T7 sequence (Q9LIR4 35-608 V530I): as the sequence (Q9LIR4 35-608 V212L) above, with L178V, V496I counted along it
T5 sequence (Q9LIR4 35-608 V531L): as the sequence (Q9LIR4 35-608 V212L) above, with L178V, V497L counted along it
T15 sequence (Q9LIR4 35-608 V212L/V531L): as the sequence (Q9LIR4 35-608 V212L) above, with V497L counted along it
T16 sequence (Q9LIR4 35-608 I211L): as the sequence (Q9LIR4 35-608 V212L) above, with I177L, L178V counted along it
T13 sequence (Q9LIR4 35-608 I211L/V531L): as the sequence (Q9LIR4 35-608 V212L) above, with I177L, L178V, V497L counted along it
T9 sequence (Q9LIR4 35-608 I211L/V530L): as the sequence (Q9LIR4 35-608 V212L) above, with I177L, L178V, V496L counted along it
T4 sequence (Q9LIR4 35-608 I211F): as the sequence (Q9LIR4 35-608 V212L) above, with I177F, L178V counted along it

With `CC[C@@](C)(O)[C@@H](O)C(=O)O` (racemic) [DHMV, (±)-sodium-α,β-dihydroxymethylvalerate hydrate, reference compound], at AthDHAD [1] (substrate DHMV), the Km was 4 ± 0.45 mM and the kcat was determined as 6.50 ± 0.32 s⁻¹.
For the compound `CC(C)=C1CCC23COC(C2)C(O)(C(=O)O)CCC13` (centres unmarked) [AA, aspterric acid], the IC50 against AthDHAD-V497F is 1250 nM; at AthDHAD [1] (DHI as substrate (10 mM), 0.5 μM enzyme) it was 250 nM and 249 nM; against AthDHAD-V178L, 970 nM and 974 nM; at AthDHAD-I177F, 37000 ± 8770 nM; on AthDHAD-V497L, 59 nM; at AthDHAD-V496F it was 2940 nM. The IC50 on AthDHAD-V496I was 1140 ± 52 nM; at AthDHAD-V178I, 430 nM and 431 nM; against AthDHAD-I177L-V496L it was 309 ± 74 nM; against AthDHAD-V497I, 73.3 nM and 73 nM; against AthDHAD-V178W, 2340 nM; against AthDHAD-V178F, 6000 nM and 5990 nM. Also, the 50% inhibitory concentration (IC50) against AthDHAD-I177L-V497L was 28 nM; on AthDHAD-V496L, 820 nM and 824 nM; against AthDHAD-V178L-V497L, 396 ± 11 nM; at AthDHAD-I177L, 50 ± 1 nM. In experiment [2], the “resistance of transgenic plants to AA” value is “strong resistance”. Moreover, at AthDHAD [3] (binding of AA to AthDHAD as a competitive inhibitor), the Ki was around 300 nM. Further, the mode of inhibition entry at AthDHAD [3] (housekeeping DHAD from A. thaliana (AT3G23940)) and in the experiment with AteDHAD was “competitive inhibitor” throughout. Besides, in the experiment with AstD (reported), the “AA resistance observed in AstD” value is reported as “over 8 mM”. Further, in the experiment on AstD (within the solubility limit (8 mM)), the “sensitivity of AstD to AA” value is “completely insensitive”. Besides, the “herbicidal effect in spray experiments” value in the experiment on A. thaliana is recorded as “effective as an herbicide”. Moreover, the “growth of transgenic plants in the presence of AA” value in experiment [4] is given as “not able to rescue the growth of the plants”.
